Measured values: patent publication US8338465B2, “Cyclic carboxylic acid rhodanine derivatives for the treatment and prevention of tuberculosis” (priority 2006, dated 2012)
pIC50: −log10 of the molar value.

The compounds below were run against T1, dihydrolipoamide acyltransferase (DlaT) (Mycobacterium tuberculosis, UniProt P9WIS7) (assay: DlaT inhibition (Dlat IC50); DTNB peroxidase assay with Lpd, DlaT and AhpD). Settings: Dlat IC50 category.
T1 sequence (P9WIS7 1-553): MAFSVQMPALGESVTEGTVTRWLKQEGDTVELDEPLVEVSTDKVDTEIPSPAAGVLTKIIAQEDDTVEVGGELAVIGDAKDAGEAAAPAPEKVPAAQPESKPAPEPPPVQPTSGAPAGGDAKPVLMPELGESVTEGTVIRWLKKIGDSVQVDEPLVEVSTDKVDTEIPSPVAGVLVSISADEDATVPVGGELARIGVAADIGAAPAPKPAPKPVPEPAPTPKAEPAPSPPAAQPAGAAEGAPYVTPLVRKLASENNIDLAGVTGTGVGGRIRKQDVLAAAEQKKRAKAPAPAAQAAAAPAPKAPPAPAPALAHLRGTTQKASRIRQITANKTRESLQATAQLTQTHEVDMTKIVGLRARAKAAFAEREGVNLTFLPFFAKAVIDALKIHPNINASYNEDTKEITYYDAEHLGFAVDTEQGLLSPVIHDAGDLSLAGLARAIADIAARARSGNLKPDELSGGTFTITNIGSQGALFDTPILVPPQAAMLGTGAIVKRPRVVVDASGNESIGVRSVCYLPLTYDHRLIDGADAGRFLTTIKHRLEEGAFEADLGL
Type: biochemical
With `Cc1cc(N(C)C)ccc1-c1ccc(C=C2SC(=S)N(CCCC(=O)O)C2=O)o1` [Compound B92] the pIC50 was 4.40 to 4.96.
For `CS(=O)(=O)c1ccc(-c2ccc(C=C3SC(=S)N(CCCC(=O)O)C3=O)o2)cc1` [Compound B93], the pIC50 was 4.40 to 4.96.
Work on `CC(C(=O)O)N1C(=O)C(=Cc2ccc(-c3ccccc3Cl)o2)SC1=S` (centres unmarked) [Compound B94] yielded a pIC50 of 4.40 to 4.96.
`CC(C(=O)O)N1C(=O)C(=Cc2ccc(-c3cccc(Cl)c3)o2)SC1=S` (centres unmarked) [Compound B95] was tested, and the pIC50 was 4.40 to 4.96.
In the case of `CC(C(=O)O)N1C(=O)C(=Cc2ccc(-c3ccc(Cl)cc3)o2)SC1=S` (centres unmarked) [Compound B96], the pIC50 was > 5.00.
`Cc1ccccc1-c1ccc(C=C2SC(=S)N(C(C)C(=O)O)C2=O)o1` (centres unmarked) [Compound B97] was tested, and the pIC50 was 4.40 to 4.96.
For `CC(C(=O)O)N1C(=O)C(=Cc2ccc(-c3ccc(F)cc3)o2)SC1=S` (centres unmarked) [Compound B98], the pIC50 was 4.10 to 4.39.
In the case of `CC(C(=O)O)N1C(=O)C(=Cc2ccc(-c3ccccc3C(F)(F)F)o2)SC1=S` (centres unmarked) [Compound B99], the pIC50 was 4.40 to 4.96.
In the case of `CC(C(=O)O)N1C(=O)C(=Cc2ccc(-c3cccc(C(F)(F)F)c3)o2)SC1=S` (centres unmarked) [Compound B100], the pIC50 was > 5.00.
In the case of `CC(C)C(C(=O)O)N1C(=O)C(=Cc2ccc(-c3ccccc3Cl)o2)SC1=S` (centres unmarked) [Compound B101], the pIC50 was > 5.00.
For `CC(C)C(C(=O)O)N1C(=O)C(=Cc2ccc(-c3cccc(Cl)c3)o2)SC1=S` (centres unmarked) [Compound B102], the pIC50 was 4.40 to 4.96.
With `CC(C)C(C(=O)O)N1C(=O)C(=Cc2ccc(-c3ccc(Cl)cc3)o2)SC1=S` (centres unmarked) [Compound B103] the pIC50 was > 5.00.
With `CC(C)C(C(=O)O)N1C(=O)C(=Cc2ccc(-c3ccccc3C(F)(F)F)o2)SC1=S` (centres unmarked) [Compound B104] the pIC50 was > 5.00.
`CC(C)C(C(=O)O)N1C(=O)C(=Cc2ccc(-c3cccc(C(F)(F)F)c3)o2)SC1=S` (centres unmarked) [Compound B105] was tested, and the pIC50 was 4.40 to 4.96.
Work on `Cc1ccccc1-c1ccc(C=C2SC(=S)N(C(C(=O)O)C(C)C)C2=O)o1` (centres unmarked) [Compound B106] yielded a pIC50 of 4.40 to 4.96.
`CC(C)C(C(=O)O)N1C(=O)C(=Cc2ccc(-c3ccc(F)cc3)o2)SC1=S` (centres unmarked) [Compound B107] showed a pIC50 of 4.40 to 4.96.
`CC(C)C(C(=O)O)N1C(=O)C(=Cc2ccc(-c3ccc(Cl)cc3Cl)o2)SC1=S` (centres unmarked) [Compound B108] was tested, and the pIC50 was > 5.00.
With `COc1ccc(-c2ccc(C=C3SC(=S)N(C(C(=O)O)C(C)C)C3=O)o2)cc1Cl` (centres unmarked) [Compound B109] the pIC50 was > 5.00.
For `CC(C)C(C(=O)O)N1C(=O)C(=Cc2ccc(-c3ccc(Cl)cc3[N+](=O)[O-])o2)SC1=S` (centres unmarked) [Compound B110], the pIC50 was 4.40 to 4.96.
With `CC(C)C(C(=O)O)N1C(=O)C(=Cc2ccc(-c3ccc(Cl)c(Cl)c3)o2)SC1=S` (centres unmarked) [Compound B111] the pIC50 was > 5.00.
For `COc1ccc(-c2ccc(C=C3SC(=S)N(C(C)C(=O)O)C3=O)o2)cc1Cl` (centres unmarked) [Compound B113], the pIC50 was > 5.00.
In the case of `CC(C(=O)O)N1C(=O)C(=Cc2ccc(-c3ccc(Cl)cc3[N+](=O)[O-])o2)SC1=S` (centres unmarked) [Compound B114], the pIC50 was 4.40 to 4.96.
Work on `CNS(=O)(=O)c1ccc(-c2ccc(C=C3SC(=S)N(CCCC(=O)O)C3=O)o2)cc1` [Compound B115] yielded a pIC50 of 4.10 to 4.39.
`O=C(O)C1CCCC(N2C(=O)C(=Cc3ccc(-c4ccccc4Cl)o3)SC2=S)C1` (centres unmarked) [Compound C1, 3-{5-[1-[5-(2-chloro-phenyl)-furan-2-yl]-methylidene]-4-oxo-2-thioxo-thiazolidin-3-yl}-cyclohexanecarboxylic acid] was tested, and the pIC50 was 4.40 to 4.96.
In the case of `O=C(O)C1CCCC(N2C(=O)C(=Cc3ccc(-c4ccc(C5CCCCC5)cc4)o3)SC2=S)C1` (centres unmarked) [Compound C2, 3-{5-[1-[5-(4-cyclohexyl-phenyl)-furan-2-yl]-methylidene]-4-oxo-2-thioxo-thiazolidin-3-yl}-cyclohexanecarboxylic acid], the pIC50 was > 5.00.
In the case of `CC(C)(C)c1ccc(-c2ccc(C=C3SC(=S)N(C4CCCC(C(=O)O)C4)C3=O)o2)cc1` (centres unmarked) [Compound C3, 3-{5-[1-[5-(4-tert-butyl-phenyl)-furan-2-yl]-methylidene]-4-oxo-2-thioxo-thiazolidin-3-yl}-cyclohexanecarboxylic acid], the pIC50 was > 5.00.
In the case of `CC(C)Cc1ccc(-c2ccc(C=C3SC(=S)N(C4CCCC(C(=O)O)C4)C3=O)o2)cc1` (centres unmarked) [Compound C4, 3-{5-[1-[5-(4-isobutyl-phenyl)-furan-2-yl]methylidene]-4-oxo-2-thioxo-thiazolidin-3-yl}-cyclohexanecarboxylic acid], the pIC50 was > 5.00.
For `O=C(O)C1CCCC(N2C(=O)C(=Cc3ccc(-c4cccc(C(F)(F)F)c4)o3)SC2=S)C1` (centres unmarked) [Compound C5, 3-{5-[1-[5-(3-trifluoromethyl-phenyl)-furan-2-yl]-methylidene]-4-oxo-2-thioxo-thiazolidin-3-yl}-cyclohexanecarboxylic acid], the pIC50 was > 5.00.
In the case of `O=C(O)C1CCCC(N2C(=O)C(=Cc3ccc(-c4ccc(Cc5ccccc5)cc4)o3)SC2=S)C1` (centres unmarked) [Compound C6, 3-{5-[1-[5-(4-benzyl-phenyl)-furan-2-yl]-methylidene]-4-oxo-2-thioxo-thiazolidin-3-yl}-cyclohexanecarboxylic acid], the pIC50 was > 5.00.
For `O=C(O)C1CCCC(N2C(=O)C(=Cc3ccc(-c4ccc(F)cc4F)o3)SC2=S)C1` (centres unmarked) [Compound C7, 3-{5-[1-[5-(2,4-difluoro-phenyl)-furan-2-yl]-methylidene]-4-oxo-2-thioxo-thiazolidin-3-yl}-cyclohexanecarboxylic acid], the pIC50 was > 5.00.
For `Cc1ccc(-c2ccc(C=C3SC(=S)N(C4CCCC(C(=O)O)C4)C3=O)o2)c(C)c1` (centres unmarked) [Compound C8, 3-{5-[1-[5-(2,4-dimethyl-phenyl)-furan-2-yl]-methylidene]-4-oxo-2-thioxo-thiazolidin-3-yl}-cyclohexanecarboxylic acid], the pIC50 was > 5.00.
In the case of `COc1ccc(-c2ccc(C=C3SC(=S)N(C4CCCC(C(=O)O)C4)C3=O)o2)c(C)c1` (centres unmarked) [Compound C9, 3-{5-[1-[5-(2-methyl-4-methoxy-phenyl)-furan-2-yl]-methylidene]-4-oxo-2-thioxo-thiazolidin-3-yl}-cyclohexanecarboxylic acid], the pIC50 was 4.40 to 4.96.
`Cc1ccccc1-c1cccc(C=C2SC(=S)N(C3CCCC(C(=O)O)C3)C2=O)n1` (centres unmarked) [Compound C10, 3-[4-Oxo-2-thioxo-5-(6-o-tolyl-pyridin-2-ylmethylene)-thiazolidin-3-yl]-cyclohexanecarboxylic acid] gave a pIC50 of 4.10 to 4.39.
In the case of `Cc1cc(F)ccc1-c1ccc(C=C2SC(=S)N(C3CCCC(C(=O)O)C3)C2=O)o1` (centres unmarked) [Compound C11, 3-{5-[1-[5-(2-methyl-4-fluoro-phenyl)-furan-2-yl]-methylidene]-4-oxo-2-thioxo-thiazolidin-3-yl}-cyclohexanecarboxylic acid], the pIC50 was > 5.00.
`Cc1ccc(-c2ccc(C=C3SC(=S)N(C4CCCC(C(=O)O)C4)C3=O)o2)c(F)c1` (centres unmarked) [Compound C12, 3-{5-[1-[5-(2-fluoro-4-methyl-phenyl)-furan-2-yl]-methylidene]-4-oxo-2-thioxo-thiazolidin-3-yl}-cyclohexanecarboxylic acid] was tested, and the pIC50 was > 5.00.
For `O=C(O)C1CCCC(N2C(=O)C(=Cc3ccc(-c4ccccc4O)o3)SC2=S)C1` (centres unmarked) [Compound C13, 3-{5-[1-[5-(2-hydroxy-phenyl)-furan-2-yl]-methylidene]-4-oxo-2-thioxo-thiazolidin-3-yl}-cyclohexanecarboxylic acid], the pIC50 was > 5.00.
With `Cc1ccc(-c2ccc(C=C3SC(=S)N(C4CCCC(C(=O)O)C4)C3=O)o2)cc1` (centres unmarked) [Compound C14, 3-{4-oxo-2-thioxo-5-[1-(5-p-tolyl-furan-2-yl)-methylidene]-thiazolidin-3-yl}-cyclohexanecarboxylic acid] the pIC50 was > 5.00.
In the case of `COc1ccc(-c2ccc(C=C3SC(=S)N(C4CCCC(C(=O)O)C4)C3=O)o2)cc1` (centres unmarked) [Compound C15, 3-{5-[1-[5-(4-methoxy-phenyl)-furan-2-yl]-methylidene]-4-oxo-2-thioxo-thiazolidin-3-yl}-cyclohexanecarboxylic acid], the pIC50 was > 5.00.
For `O=C(O)C1CCC(N2C(=O)C(=Cc3ccc(-c4ccccc4Cl)o3)SC2=S)CC1` (centres unmarked) [Compound C16, 4-{5-[1-[5-(2-chloro-phenyl)-furan-2-yl]-methylidene]-4-oxo-2-thioxo-thiazolidin-3-yl}-cyclohexanecarboxylic acid], the pIC50 was > 5.00.
With `O=C(O)C1CCC(N2C(=O)C(=Cc3ccc(-c4cccc(C(F)(F)F)c4)o3)SC2=S)CC1` (centres unmarked) [Compound C17, 4-{5-[1-[5-(3-trifluoromethyl-phenyl)-furan-2-yl]-methylidene]-4-oxo-2-thioxo-thiazolidin-3-yl}-cyclohexanecarboxylic acid] the pIC50 was > 5.00.
`O=C(O)C1CCC(N2C(=O)C(=Cc3ccc(-c4ccc(Cl)cc4)o3)SC2=S)CC1` (centres unmarked) [Compound C18, 4-{5-[1-[5-(4-chloro-phenyl)-furan-2-yl]-methylidene]-4-oxo-2-thioxo-thiazolidin-3-yl}-cyclohexanecarboxylic acid] was tested, and the pIC50 was > 5.00.
With `COc1ccc(-c2ccc(C=C3SC(=S)N(C4CCCC(C(=O)O)C4)C3=O)o2)c(OC)c1` (centres unmarked) [Compound C19, 3-{5-[1-[5-(2,4-dimethoxy-phenyl)-furan-2-yl]-methylidene]-4-oxo-2-thioxo-thiazolidin-3-yl}-cyclohexanecarboxylic acid] the pIC50 was > 5.00.
For `Cc1cc(Cl)ccc1-c1ccc(C=C2SC(=S)N(C3CCCC(C(=O)O)C3)C2=O)o1` (centres unmarked) [Compound C20, 3-{5-[1-[5-(4-chloro-2-methyl-phenyl)-furan-2-yl]-methylidene]-4-oxo-2-thioxo-thiazolidin-3-yl}-cyclohexanecarboxylic acid], the pIC50 was > 5.00.
Work on `O=C1C(=Cc2ccc(-c3ccccc3Cl)o2)SC(=S)N1C1CCC(O)CC1` (centres unmarked) [Compound C21, 5-[1-[5-(2-chloro-phenyl)-furan-2-yl]-methylidene]-3-(4-hydroxy-cyclohexyl)-2-thioxo-thiazolidin-4-one] yielded a pIC50 of 4.40 to 4.96.
